In patent US12624049B2, “Salt and crystal forms of 4-amino-5-(6-(4-methylpiperazin-1-yl)-1H-benzo[d]imidazol-z-yl)thieno[2.3-b]pyridin-6(7H)-one” (UNIVERSITY HEALTH NETWORK, priority 2020, dated 2026):
≈ marks a conversion by molar mass, not a printed value. Where a name gives a salt, the structure may show the parent alone. Read-outs that look alike come from different tables or passages of the source. One block for each compound: values may come before it.

Assays:
[1] = Pharmacokinetics after single oral dose (powder in capsule), Compound (I) plasma level by LC/MS; format: in vivo, male Beagle dogs
Protocol: A single dose as powder in capsule of Compound (I), 1:1 Compound (I) mono HCl salt (Batch 3), di-HCl salt of Compound (I), and 1:1 Compound (I) tartrate salt was administrated to male Beagle dogs at either 125 mg/kg or 150 mg/kg. Blood samples were collected for up to 24 h and the plasma was analyzed for Compound (I) plasma level by LC/MS.

[2] = Solubility in water, SGF and FaSSIF (supernatant by HPLC/UPLC); format: physicochemical; conditions: for Solubility (mg/mL) water: stirred 1 h at ambient temperature, analyzed at 24 h; for Solubility (mg/mL) FaSSIF: fasted state simulated intestinal fluid buffer, target 2 mg/mL; for Solubility (mg/mL) FaSSIF / Solubility (mg/mL) SGF: 24 h at 37° C.; for Solubility (mg/mL) SGF: simulated gastric fluid buffer, target 10 mg/mL
Protocol: The compounds to be tested were prepared in 3 different media as described below.
Samples prepared in water: approximately 30-40 mg of test material was weighted into a glass vial. 1 mL of water was added. The sample was stirred for 1 h at ambient temperature and the sample was analyzed by HPLC at 24 h.
Samples prepared in simulated gastric fluid (SGF) buffer: approximately 40 mg of test material was weighted into a glass vial. 4 mL of SGF buffer was added to make a target concentration at 10 mg/mL. The sample was stirred for 24 h at 37° C. and the sample was analyzed by HPLC at 24 h.
Samples prepared in fasted state simulated intestinal fluid (FaSSIF) buffer: approximately 8 mg of test material was weighted into a glass vial. 4 mL of FassiF buffer was added to make a target concentration at 2 mg/mL. The sample was stirred for 24 h at 37° C. and the sample was analyzed by HPLC at 24 h.
The samples were stirred for 1 h at ambient temperature or 24 h at 37° C. The samples were then centrifuged and the resulting supernatants were analyzed by HPLC to determine the solubility.

[3] = Hygroscopicity measurement by DVS apparatus; format: physicochemical; conditions: for Change in Mass (%) Water uptake at 30% RH / Change in Mass (%) Water uptake at 60% RH / Change in Mass (%) Water uptake at 90% RH: DVS, 25° C.
Protocol: In another embodiment, 1:1 Compound (I) tartrate salt is characterized by a hygroscopicity measurement, wherein water uptake is less than 4% (e.g. 2% or 1%) of the mass of the tartrate salt at 90% relative humidity (RH); or less than 2% (e.g. 1% or 0.5%) of the mass of the tartrate salt at 60% RH; or less than 1% (e.g. 0.5% or 0.1%) of the mass of the tartrate salt at 30% RH. The hygroscopicity in different relative humidity (RH) is measured under following conditions: • i) drying between 0.5 and 1.5 mg of the tartrate salt under a nitrogen atmosphere at 0% relative humidity for 2 hours; • ii) increasing or decreasing the relative humidity in steps of 10% from 0% to 90% then to 0%; • iii) maintaining the relative humidity at each step until the mass change compared to the mass of the original tartrate salt per minute is less than 0.01 (%/min), provided that minimum and maximum duration time at each step is 10 minutes and 180 minutes, respectively; and • iv) measuring the mass of the tartrate salt at the desired relative humidity (e.g., 90%, 60%, or 30%) and wherein steps i)-iv) are carried out at 25° C.
The compound to be tested is submitted to hygroscopicity test by means of a DVS apparatus. The testing parameters are in Table 5.

[4] = Long term stability under 3 storage conditions (appearance, HPLC purity/impurities, XRPD form); format: physicochemical; conditions: for Purity / Total amount of impurities: HPLC; for Crystalline form: XRPD
Protocol: A representative method used for stability evaluation is summarized Table 2.
Purity and stability of 4-amino-5-(6-(4-methylpiperazin-1-yl)-1H-benzo[d]imidazol-2-yl)thieno[2,3-b]pyridin-6(7H)-one (I) tartrate have been tested. Stability samples were prepared and stored under 3 different storage conditions: 2-8° C./ambient RH, 25° C./60% RH, and 40° C./75% RH. Stability samples were removed from their storage conditions within each pull window, and the samples were allowed to equilibrate to ambient conditions prior to analysis. The appearance was evaluated by visual inspection, purity and total amount of impurities were analyzed by HPLC and crystalline form was characterized by XRPD.

AUC0−tlast ([1]; beagle dogs, oral dose 125 mg/kg, powder in capsule, plasma, up to 24 h, Di-Hydrochloride, 125 mg/kg): 6862 ng·h/mL
Cmax ([1]; beagle dogs, oral dose 125 mg/kg, powder in capsule, plasma, Di-Hydrochloride, 125 mg/kg): 530 ng/mL
Solubility (mg/mL) water ([2]; Di-Hydrochloride): 3.3 mg/mL
Structure (SMILES): CN1CCN(c2ccc3[nH]c(-c4c(N)c5ccsc5[nH]c4=O)nc3c2)CC1 [Di-HCl salt, 4-amino-5-(6-(4-methylpiperazin-1-yl)-1H-benzo[d]imidazol-2-yl)thieno[2,3-b]pydidin-6(7H)-one (I) Di-Hydrochloride]

Change in Mass (%) Water uptake at 30% RH [3]: 0.5%
Change in Mass (%) Water uptake at 60% RH [3]: 0.9%
Change in Mass (%) Water uptake at 90% RH [3]: 26%
AUC0−tlast ([1]; beagle dogs, oral dose 125 mg/kg, powder in capsule, plasma, up to 24 h, 125 mg/kg): 2264 ng·h/mL
Cmax ([1]; male, beagle, dog, plasma, po, 125 mg/kg, beagle dogs, oral dose 125 mg/kg, powder in capsule, plasma, read-out: Cmax): 301 ng/mL
Solubility (mg/mL) FaSSIF [2]: 0.09 mg/mL (≈ 237 µM)
Solubility (mg/mL) SGF [2]: 0.5 mg/mL (≈ 1310 µM)
Solubility (mg/mL) water [2]: 0.3 mg/mL (≈ 788 µM)
Structure (SMILES): CN1CCN(c2ccc3nc(-c4c(N)c5ccsc5[nH]c4=O)[nH]c3c2)CC1 [Free base, 4-amino-5-(6-(4-methylpiperazin-1-yl)-1H-benzo[d]imidazol-2-yl)thieno[2,3-b]pyridin-6(7H)-one]

Change in Mass (%) Water uptake at 30% RH [3]: 3.7%
Change in Mass (%) Water uptake at 60% RH [3]: 6.1%
Change in Mass (%) Water uptake at 90% RH [3]: 38.3%
AUC0−tlast ([1]; beagle dogs, oral dose 125 mg/kg, powder in capsule, plasma, up to 24 h, listed as Mono HCl (Batch 3), 125 mg/kg): 4354 ng·h/mL
Cmax ([1]; beagle dogs, oral dose 125 mg/kg, powder in capsule, plasma, listed as Mono HCl (Batch 3), 125 mg/kg): 547 ng/mL
Solubility (mg/mL) FaSSIF ([2]; Batch 3): 0.22 mg/mL
Solubility (mg/mL) SGF ([2]; Batch 3): 9.0 mg/mL
Solubility (mg/mL) water ([2]; Batch 3): 10.2 mg/mL
Structure (SMILES): CN1CCN(c2ccc3nc(-c4c(N)c5ccsc5[nH]c4=O)[nH]c3c2)CC1 [Mono HCl salt (Batch 3)]

Change in Mass (%) Water uptake at 30% RH [3]: 0.06%
Change in Mass (%) Water uptake at 60% RH [3]: 0.3%
Change in Mass (%) Water uptake at 90% RH [3]: 0.7%
Hygroscopicity (in words) ([3]; crystalline form, see Example 6): non-hygroscopic
Plasma concentrations in dogs following oral administration (in words) ([1]; compared to the free base and the mono HCl salt): improved plasma concentrations
AUC(0-t) ([1]; male, beagle, dog, plasma, po, 150 mg/kg, beagle dogs, oral dose 150 mg/kg, powder in capsule, plasma, up to 24 h, read-out: AUC0−tlast): 6550 ng·h/mL
Cmax ([1]; male, beagle, dog, plasma, po, 150 mg/kg, beagle dogs, oral dose 150 mg/kg, powder in capsule, plasma, read-out: Cmax): 514 ng/mL
Solubility (mg/mL) FaSSIF [2]: 0.02 mg/mL
Solubility in water and in simulated gastric fluids (in words) ([2]; see Example 7 and Table 7): improved solubility
Solubility (mg/mL) SGF [2]: 9.0 mg/mL
Purity ([4]; 5° C./ambient RH, 1 month): 100%
Total amount of impurities ([4]; 5° C./ambient RH, 1 month): 0.03%
Purity ([4]; 5° C./ambient RH, 3 month): 100%
Total amount of impurities ([4]; 5° C./ambient RH, 3 month): 0.0%
Purity ([4]; 5° C./ambient RH, 6 month): 100%
Total amount of impurities ([4]; 5° C./ambient RH, 6 month): 0.03%
Purity ([4]; 5° C./ambient RH, 12 month): 100%
Total amount of impurities ([4]; 5° C./ambient RH, 12 month): 0.03%
Purity ([4]; 5° C./ambient RH, Initial): 100%
Total amount of impurities ([4]; 5° C./ambient RH, Initial): 0.03%
Crystalline form ([4]; 5° C./ambient RH, Initial): Yes
Purity ([4]; 25° C./60% RH, 1 month): 100%
Total amount of impurities ([4]; 25° C./60% RH, 1 month): 0.02%
Purity ([4]; 25° C./60% RH, 3 month): 100%
Total amount of impurities ([4]; 25° C./60% RH, 3 month): 0.03%
Purity ([4]; 25° C./60% RH, 6 month): 100%
Total amount of impurities ([4]; 25° C./60% RH, 6 month): 0.03%
Purity ([4]; 25° C./60% RH, 12 month): 100%
Total amount of impurities ([4]; 25° C./60% RH, 12 month): 0.03%
Purity ([4]; 25° C./60% RH, Initial): 100%
Total amount of impurities ([4]; 25° C./60% RH, Initial): 0.03%
Crystalline form ([4]; 25° C./60% RH, Initial): Yes
Purity ([4]; 40° C./75% RH, 1 month): 100%
Total amount of impurities ([4]; 40° C./75% RH, 1 month): 0.02%
Purity ([4]; 40° C./75% RH, 3 month): 100%
Total amount of impurities ([4]; 40° C./75% RH, 3 month): 0.03%
Purity ([4]; 40° C./75% RH, 6 month): 100%
Total amount of impurities ([4]; 40° C./75% RH, 6 month): 0.03%
Purity ([4]; 40° C./75% RH, 12 month): 100%
Total amount of impurities ([4]; 40° C./75% RH, 12 month): 0.03%
Purity ([4]; 40° C./75% RH, Initial): 100%
Total amount of impurities ([4]; 40° C./75% RH, Initial): 0.03%
Crystalline form ([4]; 40° C./75% RH, Initial): Yes
Shelf life (in words) ([4]; see Example 8): extended shelf life
Structure (SMILES): CN1CCN(c2ccc3nc(-c4c(N)c5ccsc5[nH]c4=O)[nH]c3c2)CC1 [Tartrate salt, 4-amino-5-(6-(4-methylpiperazin-1-yl)-1H-benzo[d]imidazol-2-yl)thieno[2,3-b]pyridin-6(7H)-one (I) tartrate]
